The record followed here is the METLIN SMRT retention time set (Domingo-Almenara et al. 2019).

The series can be described thus: gradient 5% acetonitrile 3 min, to 50% in 2 min, to 85% in 15 min, held 3 min, 100 µL/min. Conditions: column: Zorbax Extend-C18 2.1 x 50 mm; eluents: water / acetonitrile, 0.1% formic acid. The method, boiled down: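 Retention times of pure standards were taken from adduct peaks that were selected by computer and manually inspected. Over 3 months, mixtures of ~100 molecules were run by HPLC–quadrupole time-of-flight mass spectrometry in positive and negative ionization mode. The Zorbax Extend-C18 column (2.1 × 50 mm, 1.8 μm) ran at 100 μL/min in water and acetonitrile, each containing 0.1% formic acid, with 40 μL dead volume and 900 μL dwell volume.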
`COCCNC(=O)CN1c2ccccc2NC2=C(C(=O)CC(C)(C)C2)C1c1ccccc1OC` (stereo not given): the RP-LC retention time is 756 s. The result for `CCC(=O)Nc1ccc(C2(C(=O)NCCN3CCCC3)CCCCC2)cc1` reads 606 s. The result for `CCN1CCN(C(=O)C2CCCN(c3ncnc4c3nc3n4CCCCC3)C2)CC1` (stereo not given) reads 575 s; that for `CCCN1CCN(C(=O)CN(C)S(=O)(=O)c2ccc3c(c2)CCCC(=O)N3)CC1`, 577 s. The result for `CCn1nc(C)c(CCNC(=O)c2ccc3nc(C(C)C)oc3c2)c1C` reads 662 s; that for `COc1cccc(OC)c1C(=O)NCCNC(=O)c1ccc(NC(=O)C2CC2)cc1`, 608 s. As to `COc1ccccc1-c1nc(Cn2nnc(-c3nc(-c4cccc(C(F)(F)F)c4)no3)c2C)c(C)o1`, the RP-LC retention time turned out to be 1250 s.

The compound `N#Cc1cc2c(OCC(O)CN3CCN(C(c4ccccc4)c4ccccc4)CC3)cccc2[nH]1` (stereo not given) showed an RP-LC retention time of 819 s.

The compound `Cc1cc(C)cc(C(=O)NC2CCN(c3cc(-c4cccs4)[nH]n3)C2)c1` (stereo not given) returned an RP-LC retention time of 742 s. The compound `CCc1cc(-c2csc(S(=O)(=O)N3CC=C(c4ccccc4)CC3)c2)on1` gave an RP-LC retention time of 1170 s. Turning to `Cc1ccc(C2CCCN2C(=O)Nc2ccc3c(c2)OCCO3)cc1` (stereo not given), the RP-LC retention time came out at 922 s.

As to `COCc1cc(=O)n(CC(=O)Nc2cccc(OC)c2)c(N2CCOCC2)n1`, the RP-LC retention time was 779 s. The figure for `Cc1ccc(S(=O)(=O)Nc2cc(C(=O)O)ccc2N2CCN(c3ccccn3)CC2)cc1` is 673 s; for `CCOC(=O)C(CC)Oc1cc(O)c2c(=O)cc(-c3ccccc3)oc2c1` (stereo not given) it is 760 s; for `CCOCCCN1C(=O)CN(C2CCCCCC2)C(=O)C1c1ccc(OCC)c(OC)c1` (stereo not given) it is 925 s. The figure for `Cc1sc(NC(=O)c2cccc(Cn3cc(Br)cn3)c2)nc1-c1ccccc1` is 1190 s; for `CN1C(=O)c2cc(C(=O)NCc3ccccc3Cl)nn2CC1(C)C(=O)NC1CCCCC1` (stereo not given) it is 839 s; for `COc1cccc(N2CCN(C(=O)c3cc(NC(=O)C(C)C)cc4nc(C)ccc34)CC2)c1` it is 681 s.

In turn, `Cc1cc(=O)n(CC(=O)Nc2cc(F)ccc2C)c(N2CCOCC2)n1` gave an RP-LC retention time of 689 s. The figure for `CN(C)CCn1nnc2cc(-c3noc(Cc4ccc(F)cc4)n3)ccc21` is 714 s; for `Cc1c(C)n(-c2ccc(Cl)cc2)c2ncn(CC(=O)NCc3ccco3)c(=O)c12` it is 868 s. The result for `CC(C)NC(=O)N(C1CCOCC1)C1CN(C(=O)c2ccnn2C)C1` reads 576 s. `COCCN1C(=O)CS(=O)C12CCN(C(=O)c1ccsc1)CC2` (stereo not given) gave an RP-LC retention time of 593 s. On to `Cn1nc(C(=O)Nc2cccc(-c3nnc4n3CCCC4)c2)c2ccccc21`, for which the RP-LC retention time amounted to 712 s. The figure for `Cc1sc2ccn(C)c(=O)c2c1C(=O)NCc1ccc(N2CCCCC2)cc1` is 580 s; for `CC1(C)CS(=O)(=O)N(c2cccc(C(=O)NCCc3c[nH]c4ccccc34)c2)C1=O` it is 825 s. The figure for `O=S(=O)(c1ccc2c(c1)-c1oncc1CO2)N1CCN(Cc2ccc3c(c2)OCO3)CC1` is 666 s; for `COc1ccccc1-c1noc(Cn2ccn3nc(-c4cccc5ccccc45)cc3c2=O)n1` it is 1070 s; for `O=C(CSc1ccncc1)N1CCc2cc(-c3csc(C4CC4)n3)ccc21` it is 723 s. The result for `CCOc1ccc(NC(=O)N2CCC3(CC2)NC(=O)c2ccccc2N3CC)cc1` reads 785 s; that for `COCCOC1CCN(S(=O)(=O)Cc2ccccc2F)CC1`, 809 s; that for `Cc1cc(C)n(-c2ccc(=O)n(CC(=O)NCc3ccc4c(c3)OCO4)n2)n1`, 668 s. `O=C(Cc1cccs1)NC1CCc2nnc(C3CC3)n2CC1` (stereo not given) showed an RP-LC retention time of 598 s. The result for `Cc1noc([C@@H]2CN(Cc3cc(Cl)ccc3F)C[C@H]2CO)n1` reads 594 s; that for `Cc1ccccc1N1C(=O)CN(S(C)(=O)=O)CC1(C)C(=O)NCc1ccc(F)cc1` (stereo not given), 818 s. With `Cc1ccccc1OCC(=O)Nc1nc(-c2ccccc2)cs1`, the RP-LC retention time was 1110 s. The result for `CCOC(=O)N1CCN(C(=O)CSc2nccc3c(OC)cccc23)CC1` reads 810 s; that for `CCOC(=O)C1=C(CN2CCN(c3ccccn3)CC2)NC(=O)NC1c1ccc(Cl)cc1` (stereo not given), 643 s. Turning to `COc1ccccc1CNc1nccc(-n2ccc(C)n2)n1`, the RP-LC retention time worked out at 805 s. The figure for `CCN(C(=O)c1cccs1)c1nc(-c2ccccc2)cs1` is 1220 s; for `Cc1cc(C(=O)Nc2ccc(Cl)cc2)nc2cc(-c3ccco3)nn12` it is 1170 s; for `COCCn1cc2c3c(cccc31)CN(C(=O)c1ccc(Br)o1)CC2` it is 976 s. The result for `COc1ccc(C(=O)Oc2ccc[nH]c2=O)cc1` reads 721 s; that for `COCC(=O)NC1CCC12CCN(C(=O)C1CCOCC1)CC2` (stereo not given), 603 s.

In turn, `CC1=C(c2ccc(F)cc2)S(=O)(=O)N=C1N1CCCN(C(=O)C2CCOC2)CC1` (stereo not given) registered an RP-LC retention time of 886 s.

Compound `COc1ccc(CN2CCC([C@@H]3CNC[C@H]3CO)CC2)cc1Cn1ccnc1` showed an RP-LC retention time of 572 s. The figure for `Cc1csc(-c2ccc(N3CCN(C(=O)Cc4cccc(F)c4)CC3)nc2)n1` is 849 s; for `CCN1C(=O)C2(CCN(S(=O)(=O)c3ccc(C)cc3)CC2)c2ccccc21` it is 1050 s.

On to `Cc1nc(C2CN(S(=O)(=O)c3ccccc3C(F)(F)F)CC23CCOCC3)no1` (stereo not given), for which the RP-LC retention time stood at 892 s.

As for `CCc1ccc(NC(=O)Cn2c(=O)n(-c3ccc(C)cc3)c(=O)c3c2cc(C)n3C)cc1`, the RP-LC retention time was 956 s. `CN1CCCc2cc(C(CNC(=O)C(=O)Nc3ccc4c(c3)OCO4)N3CCCC3)ccc21` (stereo not given) showed an RP-LC retention time of 714 s.

The compound `CCCCc1ccc(Nc2ncccc2S(N)(=O)=O)cc1` showed an RP-LC retention time of 1060 s. `CCc1noc(NC(C)=O)c1-c1ccc(C)c(S(=O)(=O)N2CCCCCC2)c1` came in with an RP-LC retention time of 926 s. The figure for `C[C@H](N)Cc1cccc(C(F)(F)F)c1` is 655 s; for `CCCC(=O)c1cn(CC(=O)NCc2ccc3c(c2)OCCCO3)c2ccccc12` it is 876 s. With `Cc1ccc(S(=O)(=O)N2CCCC2c2nc(-c3cccc(Cl)c3)no2)cc1C` (stereo not given), the RP-LC retention time is 1270 s. The figure for `CCCSc1nnc(CNC(=O)c2ccccc2F)n1-c1cccc(C(F)(F)F)c1` is 831 s; for `Cn1c(=O)c2cc(C(=O)Nc3ccccc3C(N)=O)cnc2n(-c2ccccc2)c1=O` it is 788 s; for `COc1ccc(-c2ncc3c(=O)n(Cc4ccccc4C)c(=O)n(C)c3n2)cc1` it is 679 s. The result for `O=C(O)C(c1ccccc1)n1cnnn1` (stereo not given) reads 585 s.

Compound `COc1ccc(NC(=O)CSc2nc3nc(C)cc(C)n3n2)cc1OC` showed an RP-LC retention time of 652 s. The figure for `CCn1c(=O)c2ccn(CC(=O)N3CCN(Cc4ccc5c(c4)OCO5)CC3)c2n(CC)c1=O` is 591 s; for `O=C(NCc1cccnc1)c1nnc(-c2ccc(S(=O)(=O)N3CCOCC3)cc2)o1` it is 596 s; for `COCCNC(=O)N1CCCN(C2=NS(=O)(=O)C(c3ccc(F)cc3)=C2C)CC1` it is 669 s. The result for `Cc1ccc(C)c(C(=O)N2CCN(c3nc4cccnc4o3)CC2)c1` reads 765 s; that for `Cc1noc(C)c1-c1ccc(S(=O)(=O)Nc2ccccc2F)cc1`, 881 s. `Brc1ccc(OCc2nn3c(C4COc5ccccc5O4)nnc3s2)cc1` (stereo not given) yielded an RP-LC retention time of 1040 s.

The compound `CCn1c(C)c(-c2nc(C3CC3)no2)c(S(=O)(=O)NCC(C)C)c1C` showed an RP-LC retention time of 930 s. The figure for `CS(=O)(=O)c1ccc(CC(=O)Nc2cccc3ccccc23)cc1` is 710 s; for `CCN1CCC2(CC1)N=C(c1ccc(C)cc1C)CC(c1cc(Cl)ccc1O)N2` (stereo not given) it is 668 s; for `Cc1ccc(NC(=O)N2CCC(c3cc(N)on3)CC2)c(Cl)c1` it is 736 s. As to `CC(C)Oc1ccc(-c2nc3ncccn3c2NC2CCCCC2)cc1`, the RP-LC retention time turned out to be 870 s.

With `Cc1ccc2c(Nc3ccc(S(N)(=O)=O)cc3)c(C(=O)N3CCSCC3)cnc2n1`, the RP-LC retention time was determined as 1370 s. Regarding `Fc1ccc(-c2nc(-c3ccc(-n4cccn4)nc3)no2)c(Cl)c1`, the RP-LC retention time worked out at 1300 s. Regarding `COc1cc(-c2noc(C3CC(=O)N(c4ccc(C(C)C)cc4)C3)n2)cc(OC)c1OC` (stereo not given), the RP-LC retention time was 605 s. The result for `O=C(OCCN1CCOCC1)C1(c2ccccc2)CCCCC1` reads 755 s.

The compound `CC1CCN(C(=O)C2=NN(Cc3ccccc3F)c3ccccc3S2(=O)=O)CC1` had an RP-LC retention time of 1030 s.

Turning to `CCOc1ccccc1-n1nnc(-c2nn3c(Cc4ccccc4)nnc3s2)c1C`, the RP-LC retention time turned out to be 857 s. As to `CCOC(=O)C1=C(C)N(CC(=O)NCC2CCCO2)c2ncnn2C1c1ccccc1` (stereo not given), the RP-LC retention time came out at 747 s. As for `CN(C)c1ccc(C(=O)N2CCN(c3cc(-c4cccs4)[nH]n3)CC2)cc1`, the RP-LC retention time was determined as 714 s.
